Source: ChEMBL document CHEMBL5352409, “Design, synthesis, and pharmacological evaluation of 2-(1-(1,3,4-thiadiazol-2-yl)piperidin-4-yl)ethan-1-ol analogs as novel glutaminase 1 inhibitors” (Eur J Med Chem, 2022)
Active and inactive are the calls of the source. The calls are words filed in the database; no cut-off is given here.

Columns and labels:
A549 [1] = test: Antiproliferative activity against human A549 cells assessed as reduction in cell viability; format: functional, cell-based
[2] = biological target: T1, Glutaminase kidney isoform, mitochondrial (Homo sapiens, UniProt O94925); test: Inhibition of GLS1 (unknown origin)
T1 sequence (O94925 whole entry): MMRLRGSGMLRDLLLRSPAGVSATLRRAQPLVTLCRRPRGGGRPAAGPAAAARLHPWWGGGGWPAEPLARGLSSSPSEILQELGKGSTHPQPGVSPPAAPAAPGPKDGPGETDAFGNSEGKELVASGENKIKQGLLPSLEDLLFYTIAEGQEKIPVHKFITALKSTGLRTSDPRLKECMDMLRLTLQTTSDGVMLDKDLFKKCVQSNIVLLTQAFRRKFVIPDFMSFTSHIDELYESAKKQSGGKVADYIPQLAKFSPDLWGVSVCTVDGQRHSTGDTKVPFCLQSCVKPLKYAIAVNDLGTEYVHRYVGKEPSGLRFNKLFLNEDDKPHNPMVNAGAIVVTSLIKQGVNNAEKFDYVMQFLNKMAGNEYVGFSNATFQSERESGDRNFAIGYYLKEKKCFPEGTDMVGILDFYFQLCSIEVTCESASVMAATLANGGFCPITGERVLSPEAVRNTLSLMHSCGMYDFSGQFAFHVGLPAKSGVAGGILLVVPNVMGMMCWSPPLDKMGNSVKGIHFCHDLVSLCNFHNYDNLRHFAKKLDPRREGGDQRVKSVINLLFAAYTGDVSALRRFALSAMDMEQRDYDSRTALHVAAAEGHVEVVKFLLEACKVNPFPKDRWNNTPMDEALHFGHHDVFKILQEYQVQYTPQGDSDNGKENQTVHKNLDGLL

A549 [3] = test: Potency index, ratio of BPTES IC50 to test compound IC50 for antiproliferative activity against human A549 cells; format: functional
HCT-116 [4] = test: Potency index, ratio of BPTES IC50 to test compound IC50 for antiproliferative activity against human HCT-116 cells; format: functional
HCT-116 [5] = test: cells; conditions: Homo sapiens
[6] = biological target: T2, Glutaminase liver isoform, mitochondrial (Homo sapiens, UniProt Q9UI32); test: Inhibition of GLS2 (unknown origin)
T2 sequence (Q9UI32 whole entry): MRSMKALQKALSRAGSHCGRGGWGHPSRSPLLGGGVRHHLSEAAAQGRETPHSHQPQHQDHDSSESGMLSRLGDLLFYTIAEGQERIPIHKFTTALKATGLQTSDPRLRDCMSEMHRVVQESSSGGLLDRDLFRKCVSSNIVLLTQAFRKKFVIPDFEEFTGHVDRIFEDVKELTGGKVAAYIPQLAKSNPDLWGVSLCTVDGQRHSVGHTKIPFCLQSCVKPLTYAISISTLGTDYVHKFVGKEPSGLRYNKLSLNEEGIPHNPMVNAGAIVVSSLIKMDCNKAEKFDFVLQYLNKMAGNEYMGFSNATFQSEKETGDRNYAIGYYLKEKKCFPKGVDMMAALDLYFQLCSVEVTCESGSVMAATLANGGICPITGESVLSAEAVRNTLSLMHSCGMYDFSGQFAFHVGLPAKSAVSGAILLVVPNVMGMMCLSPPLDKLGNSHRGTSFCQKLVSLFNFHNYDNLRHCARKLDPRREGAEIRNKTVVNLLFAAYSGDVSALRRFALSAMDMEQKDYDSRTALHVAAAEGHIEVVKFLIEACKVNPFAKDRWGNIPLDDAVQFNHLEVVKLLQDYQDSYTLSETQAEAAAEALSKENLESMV

Homo sapiens = species on record: Homo sapiens; test: Selectivity ratio of IC50 for GLS2 (unknown origin) to IC50 for GLS1 (unknown origin)
A549 [7] = test: Inhibition of glutaminase in human A549 cells assessed as ratio of glutamine to glutamate level (Rv b= 0.45 +/- 0.011); format: cell-based
A549 [8] = test: Inhibition of colony formation in human A549 cells at 2 to 8 uM; format: functional, cell-based; conditions: dose 2-8 µM
HCT-116 [9] = test: Inhibition of colony formation in human HCT-116 cells at 2 to 8 uM; format: functional, cell-based; conditions: dose 2-8 µM
[10] = biological target: T3, Glutaminase kidney isoform, mitochondrial (Homo sapiens) (UniProt O94925); test: Potency index, ratio of BPTES IC50 to test compound IC50 for inhibition of GLS1 (unknown origin)
T3 sequence (whole entry): T1 sequence (O94925 whole entry)

[11] = human, microsomes
Description: Metabolic stability in human liver microsome assessed as intrinsic clearance

in vitro = conditions: human, liver microsomes
[12] = Cmax in rat at 5 mg/kg, iv; format: ADME, organism-based; set-up: dose 5 mg/kg, route iv; conditions: in vivo
[13] = Cmax in rat at 5 mg/kg, po; format: ADME, organism-based; set-up: dose 5 mg/kg, route po; conditions: in vivo
[14] = AUC(0 to t) in rat at 5 mg/kg, iv; format: ADME, organism-based; set-up: dose 5 mg/kg, route iv; conditions: in vivo
[15] = AUC(0 to t) in rat at 5 mg/kg, po; format: ADME, organism-based; set-up: dose 5 mg/kg, route po; conditions: in vivo
[16] = AUC(0 to t) in rat at 3 mg/kg, iv; format: ADME, organism-based; set-up: dose 3 mg/kg, route iv; conditions: in vivo
A549 [17] = test: Antitumor activity against human A549 cells xenografted in mouse model assessed as tumor growth inhibition at 100 mg/kg once daily via oral gavage administered for 28 days relative to control; format: functional; set-up: scale not given: the % may be the effect or the level left; conditions: time 28 day
[18] = Oral bioavailability in rat at 5 mg/kg; format: ADME, organism-based; conditions: in vivo
HCT-116 [19] = test: Antitumor activity against human HCT-116 cells xenografted in mouse model assessed as tumor growth inhibition at 100 mg/kg once daily via oral gavage administered for 28 days relative to control; format: functional; set-up: scale not given: the % may be the effect or the level left; conditions: time 28 day
A549 [20] = test: Induction of apoptosis in human A549 cells assessed as early apoptotic cells at 1 uM incubated for 48 hrs by annexin V-FITC and propidium iodide based flow cytometry analysis (Rvb =12.289%); format: functional
A549 [21] = test: Induction of apoptosis in human A549 cells assessed as early apoptotic cells at 5 uM incubated for 48 hrs by annexin V-FITC and propidium iodide based flow cytometry analysis (Rvb =12.289%); format: functional
A549 [22] = test: Induction of apoptosis in human A549 cells assessed as early apoptotic cells at 10 uM incubated for 48 hrs by annexin V-FITC and propidium iodide based flow cytometry analysis (Rvb =12.289%); format: functional
A549 [23] = test: Induction of apoptosis in human A549 cells assessed as late apoptotic cells at 1 uM incubated for 48 hrs by annexin V-FITC and propidium iodide based flow cytometry analysis (Rvb =9.696%); format: functional
A549 [24] = test: Induction of apoptosis in human A549 cells assessed as late apoptotic cells at 5 uM incubated for 48 hrs by annexin V-FITC and propidium iodide based flow cytometry analysis (Rvb =9.696%); format: functional
A549 [25] = test: Induction of apoptosis in human A549 cells assessed as late apoptotic cells at 10 uM incubated for 48 hrs by annexin V-FITC and propidium iodide based flow cytometry analysis (Rvb =9.696%); format: functional
HCT-116 [26] = test: Antitumor activity against human HCT-116 cells xenografted in mouse model assessed as reduction in tumor cells at 100 mg/kg administered via oral gavage for 28 days; format: functional, organism-based; conditions: time 28.0 day
in vivo [27] = conditions: rat, iv, 5 mg/kg
in vivo [28] = conditions: rat, po, 5 mg/kg

| SMILES | IC50 (A549 [1]) [nM] | IC50 [2] [nM] | IC50 (HCT-116 [5]) [nM] | IC50 [6] [nM] | Ratio IC50 (Homo sapiens) | Ratio (A549 [7]) | inhibition (A549 [8]) | inhibition (HCT-116 [9]) | CLH [11] [g/mL/min] | half-life (in vitro) [h] | also measured |
| --- | --- | --- | --- | --- | --- | --- | --- | --- | --- | --- | --- |
| CCCN1CCC(CNC(=O)c2ccc(COCCC3CCN(c4nnc(NC(=O)Cc5ccccc5)s4)CC3)cc2)CC1 | 1320 | 290 | 1690 | – | – | – | – | – | – | – | Ratio IC50 (A549 [3]): 20; Ratio IC50 (HCT-116 [4]): 20 |
| Cc1ccccc1CN1CCC(CNC(=O)c2cccc(COCCC3CCN(c4nnc(NC(=O)Cc5ccccc5)s4)CC3)c2)CC1 | 980 | 85 | 550 | > 15000 | > 100 | 1.49 | Active | Active | 46.8 | > 2 | Ratio IC50 [10]: 50 |
| CN1CCN(c2cccc(NC(=O)c3ccc(CN4CCN(c5nnc(NC(=O)Cc6ccccc6)s5)CC4)cc3)c2)CC1 | 970 | 79 | 520 | > 15000 | > 100 | 1.1 | – | – | 60.3 | 1.04 | – |
| CN1CCC(CNC(=O)c2ccc(COCCC3CCN(c4nnc(NC(=O)Cc5ccccc5)s4)CC3)cc2)CC1 | 2310 | 320 | 1510 | – | – | – | – | – | – | – | Ratio IC50 (A549 [3]): 20; Ratio IC50 (HCT-116 [4]): 20 |
| CCCCCCN1CCC(CNC(=O)c2ccc(COCCC3CCN(c4nnc(NC(=O)Cc5ccccc5)s4)CC3)cc2)CC1 | 740 | 88 | 340 | > 15000 | > 100 | 1.42 | – | – | 22.3 | > 2 | – |
| CN1CCN(c2cccc(NC(=O)c3cccc(CN4CCN(c5nnc(NC(=O)Cc6ccccc6)s5)CC4)c3)c2)CC1 | 870 | 65 | 1130 | > 15000 | > 100 | 1.17 | Active | Active | 21.2 | > 2 | – |
| CN1CCN(c2cccc(NC(=O)c3ccc(COCCC4CCN(c5nnc(NC(=O)Cc6ccccc6)s5)CC4)cc3)c2)CC1 | 650 | 62 | 260 | > 15000 | > 100 | 0.74 | – | – | 35.8 | > 2 | – |
| C=CCCC(=O)N1CCC(CNC(=O)c2ccc(COCCC3CCN(c4nnc(NC(=O)Cc5ccccc5)s4)CC3)cc2)CC1 | 1360 | 268 | 2070 | – | – | – | Active | Active | – | – | – |
| O=C(Cc1ccccc1)Nc1nnc(CCSCCc2nnc(NC(=O)Cc3ccccc3)s2)s1 | 49000 | – | 44000 | – | – | – | Active | Active | – | – | Cmax [12]: 493 ng/mL; Cmax [13]: 17.8 ng/mL; AUCt [14]: 543.3 ng·h/mL; AUC(0-t) [15]: 12.5 ng·h/mL; AUC(0-t) [16]: 2090 ng·h/mL; Activity (A549 [17]): 18.8%; bioavailability [18]: 2.3%; Activity (HCT-116 [19]): 22.3%; Activity (A549 [20]): 15.403%; Activity (A549 [21]): 15.055%; Activity (A549 [22]): 9.331%; Activity (A549 [23]): 8.746%; Activity (A549 [24]): 11.666%; Activity (A549 [25]): 14.31%; Activity (HCT-116 [26]): Active; half-life (in vivo [27]): 3.8 h; half-life (in vivo [28]): 2.6 h |
| CN1CCN(c2ccc(C(=O)Nc3ccc(CN4CCN(c5nnc(NC(=O)Cc6ccccc6)s5)CC4)cc3)cc2)CC1 | 760 | 66 | 530 | > 15000 | > 100 | 0.8 | – | – | 56.4 | 1.12 | – |
